The text below walks through data of patent publication US20150376196A1, “4-SUBSTITUTED PYRROLO- AND PYRAZOLO-DIAZEPINES” (BAYER PHARMA AKTIENGESELLSCHAFT, priority 2013, published 2015).

One assay concerns LAPC-4 cells. Description: Cell proliferation assay (alamarBlue), LAPC-4. The format is cell-based. Particulars: Homo sapiens, LAPC4, Prostate, 1 nM methyltrienolone, 168 hours, inhibition of cell proliferation. The protocol:
(§1) In accordance with the invention, the ability of the substances to inhibit cell proliferation was determined Cell viability was determined by means of the alamarBlue® reagent (Invitrogen) in a Victor X3 Multilabel Reader (Perkin Elmer). The excitation wavelength was 530 nm and the emission wavelength […].
The LAPC-4 cells (ATCC, PTA-1441TM) were sown at a concentration of 4000 cells/well in 100 μl of growth medium (RPMI1640, 2 mM L-glutamine, 10% cFCS) on 96-well microtitre plates. One day later, the LAPC-4 cells were treated with 1 nM methyltrienolone and various substance dilutions.
(§2) The MDA-MB-231 cells (DSMZ, ACC 732) were sown at a concentration of 4000 cells/well in 100 μl of growth medium (DMEM/Ham's F12 medium, 10% FCS) on 96-well microtitre plates. After overnight incubation at 37° C., the fluorescence values (CI values) were determined. Then the plates were treated with various substance dilutions (1E-5 M, 3E-6 M, 1E-6 M, 3E-7 M, 1E-7 M, 3E-8 M, 1E-8 M) and incubated at 37° C. for 72 (MV-4-11, LOX-IMVI cells), 96 (MOLM-13, B16F10, […] cells), 120 (MOLP-8, KMS-12-PE cells) or 168 (LAPC-4 cells) hours. Subsequently, the fluorescence values were determined (CO values). For the data analysis, the CI values were subtracted from the CO values and the results were compared between cells which had been treated with various dilutions of the substance or only with buffer solution. The ICso values (substance concentration needed for 50% inhibition of cell proliferation) were calculated therefrom.
(§3) The substances were tested in the cell lines in Table 1, which represent the indications specified by way of example: […]

Another assay relates to MOLM-13 cells. Description: Cell proliferation assay (alamarBlue), MOLM-13. In kind it is cell-based. As to conditions: Homo sapiens, Leukaemia, 96 hours, inhibition of cell proliferation. Here is the method: as §1
The MOLM-13 cells (DSMZ, ACC 554) were sown at a concentration of 4000 cells/well in 100 μl of growth medium (RPMI1640, 10% FCS) on 96-well microtitre plates.
as §2, §3
A general note: Alamar Blue is a resazurin reagent that responds to reducing activity.

The next assay deals with T1, BRD4 (BD1) (Homo sapiens, UniProt O60885).
T1 construct: amino acids 67-152, longer constructs also being possible, preferably amino acids 44-168; made in house; host or cells: E. coli
Description: Binding assay BRD4/acetylated peptide H4 (TR-FRET protein-protein interaction assay). From the text: To assess the BRD4 binding strength of the substances described in this application, the ability thereof to inhibit the interaction between BRD4 (BD1) and acetylated histone H4 in a dose-dependent manner was quantified.
For this purpose, a time-resolved fluorescence resonance energy transfer (TR-FRET) assay was used, which measures the binding between N-terminally His6-tagged BRD4 (BD1) (amino acids 67-152, longer constructs also being possible, preferably amino acids 44-168) and a synthetic acetylated histone H4 (Ac-H4) peptide with sequence GRGK(Ac)GGK(Ac)GLGK(Ac)GGAK(Ac)RHGSGSK-biotin. The recombinant BRD4 protein produced in-house according to Filippakopoulos et al., Nature, 2010, 468:1119-1123 was expressed in E. coli and purified by means of (Ni-NTA) affinity and (Sephadex G-75) size exclusion chromatography. The Ac-H4 peptide can be purchased, for example, from Biosyntan (Berlin, Germany).
In the assay, typically 11 different concentrations of each substance (0.1 nM, 0.33 nM, 1.1 nM, 3.8 nM, 13 nM, 44 nM, 0.15 μM, 0.51 μM, 1.7 μM, 5.9 μM and 20 μM) were analysed as duplicates on the same microtitre plate. For this purpose, 100-fold concentrated solutions in DMSO were prepared by serial dilutions (1:3.4) of a 2 mM stock solution into a clear, 384-well microtitre plate (Greiner Bio-One, Frickenhausen, Germany). From this, 50 nl were transferred into a black test plate (Greiner Bio-One, Frickenhausen, Germany). The test was started by the addition of 2 μl of a 2.5-fold concentrated BRD4 solution (final concentration typically 10 nM in the 5 μl of reaction volume) in aqueous assay buffer [50 mM HEPES pH 7.5, 50 mM sodium chloride (NaCl), 0.25 mM CHAPS and 0.05% serum albumin (BSA)] to the substances in the test plate. This was followed by a 10-minute incubation step at 22° C. for the pre-equilibration of putative complexes between BRD4 and the substances.
The mixture was then incubated in the dark at 22° C. for one hour and then at 4° C. for at least 3 hours and for no longer than overnight. The formation of BRD4/Ac-H4 complexes was determined by the measurement of the resonance energy transfer from the streptavidin-Eu cryptate to the anti-6His-XL665 antibody present in the reaction. For this purpose, the fluorescence emission was measured at 620 nm and 665 nm after excitation at 330-350 nm in a TR-FRET measuring instrument, for example a Rubystar or Pherastar (both from BMG Lab Technologies, Offenburg, Germany) or a Viewlux (Perkin-Elmer). The ratio of the emissions at 665 nm and at 622 nm was taken as an indicator of the amount of BRD4/Ac-H4 complexes formed.
The data (ratios) obtained were normalized, with 0% inhibition corresponding to the mean from the measurements for a set of controls (typically 32 data points) in which all the reagents were present. In these, in place of test substances, 50 nl of DMSO (100%) were used Inhibition of 100% corresponded to the mean from the measurements for a set of controls (typically 32 data points) in which all the reagents except BRD4 were present. The IC50 was determined by regression analysis based on a 4-parameter equation (minimum, maximum, IC50, Hill; Y=max+(min−max)/(1+(X/IC50)^Hill)).

[1] abbreviates: BRD4 (BD1) / acetylated histone H4 peptide, TR-FRET, read-out: IC50 (BRD4).

Structures are written as SMILES. Like-named read-outs stand apart in the source and are kept apart here.

On to `Cc1c2c(cn1C)-n1c(C)nnc1[C@H](CC(=O)N1CC(Oc3ccccc3)C1)N=C2c1ccc(Cl)cc1` [Example 20, (−)-2-[(4S)-6-(4-Chlorophenyl)-1,7,8-trimethyl-4,8-dihydropyrrolo[3,4f][1,2,4]triazolo[4,3-a][1,4]diazepin-4-yl]-1-(3-phenoxyazetidin-1-yl)ethanone], for which the IC50 – broadly, the concentration needed to halve the response being measured – in the assay with LAPC-4 cells was 410 nM; in the assay with MOLM-13 cells it was 920 nM; on BRD4 (BD1) (setting [1]), 60 nM.
Regarding `Cc1c2c(cn1C)-n1c(C)nnc1[C@H](CC(=O)N1CCN(C(=O)OC(C)(C)C)CC1)N=C2c1ccc(Cl)cc1` [Example 22, (−)-4-{[(4S)-6-(4-Chlorophenyl)-1,7,8-trimethyl-4,8-dihydropyrrolo[3,4-f][1,2,4]triazolo[4,3-a][1,4]diazepin-4-yl]acetyl}piperazine-1-carboxylic acid tert-butyl ester], the figures for the IC50 in the assay on LAPC-4 cells, in the assay with MOLM-13 cells and on BRD4 (BD1) (setting [1]) were 340 nM, 720 nM and 20 nM, respectively.
Regarding `Cc1nnc2n1-c1cn(C)nc1C(c1ccc(Cl)cc1)=NC2CC(=O)N1CCOCC1` (stereo not drawn) [Example 16, 2-[6-(4-Chlorophenyl)-1,8-dimethyl-4,8-dihydropyrazolo[3,4-f][1,2,4]triazolo[4,3-a][1,4]diazepin-4-yl]-1-(morpholin-4-yl)ethanone], the IC50 in the assay on MOLM-13 cells came to 4550 nM; on BRD4 (BD1) (setting [1]), 700 nM.
As for `Cc1nnc2n1-c1cn(C)nc1C(c1ccc(Cl)cc1)=NC2CC(=O)N1CC(F)C1` (stereo not drawn) [Example 17, 2-[6-(4-Chlorophenyl)-1,8-dimethyl-4,8-dihydropyrazolo[3,4-f][1,2,4]triazolo[4,3-a][1,4]diazepin-4-yl]-1-(3-fluoroazetidin-1-yl)ethanone], the IC50 at BRD4 (BD1) (setting [1]) is 1140 nM.
For `Cc1c2c(cn1C)-n1c(C)nnc1[C@H](CC(=O)N1CCOCC1)N=C2c1ccccc1` [Example 19, 1-(Morpholin-4-yl)-2-[(4S)-1,7,8-trimethyl-6-phenyl-4,8-dihydropyrrolo[3,4f][1,2,4]triazolo[4,3-a][1,4]diazepin-4-yl]ethanone], the IC50 in the assay on LAPC-4 cells came out at 700 nM; in the assay on MOLM-13 cells it was 1240 nM; at BRD4 (BD1) (setting [1]) it was 240 nM.
As for `CCNC(=O)CC1N=C(c2ccc(Cl)cc2)c2nn(C)cc2-n2c(C)nnc21` (stereo not drawn) [Example 18, 2-[6-(4-Chlorophenol)-1,8-dimethyl-4,8-dihydropyrazolo[3,4-f][1,2,4]triazolo[4,3-a][1,4]diazepin-4-yl]-N-ethylacetamide], the IC50 on BRD4 (BD1) (setting [1]) was found to be 780 nM.
In the case of `Cc1c2c(cn1C)-n1c(C)nnc1[C@H](CC(=O)OC(C)(C)C)N=C2c1ccccc1` [Example 4, (−)-2-(4S)-(1,7,8-Trimethyl-6-phenyl-4,8-dihydropyrrolo[3,4f][1,2,4]triazolo[4,3-a][1,4]diazepin-4-yl)acetic acid tert-butyl ester], the 50% inhibitory concentration (IC50) on BRD4 (BD1) is 310 nM.
Take `CCc1noc(CC2N=C(c3ccc(Cl)cc3)c3c(cn(C)c3C)-n3c(C)nnc32)n1` (stereo not drawn) [Example 27, 6-(4-Chlorophenyl)-1,7,8-trimethyl-4-[(3-ethyl-1,2,4-oxadiazol-5-yl)methyl]-4,8-dihydropyrrolo[3,4-f][1,2,4]triazolo[4,3-a][1,4]diazepine]: the IC50 in the assay with MOLM-13 cells is 100 nM; at BRD4 (BD1) (setting [1]), 30 nM.
`Cc1c2c(cn1C)-n1c(C)nnc1C(Cc1nc(C(C)C)no1)N=C2c1ccc(Cl)cc1` (stereo not drawn) [Example 29, 6-(4-Chlorophenyl)-1,7,8-trimethyl-4-{[3-(propan-2-yl)-1,2,4-oxadiazol-5-yl]methyl}-4,8-dihydropyrrolo[3,4-f][1,2,4]triazolo[4,3-a][1,4]diazepine]: the IC50 in the assay with MOLM-13 cells turned out to be 80 nM; at BRD4 (BD1) (setting [1]), 30 nM.
As to `Cc1nnc2n1-c1cn(C)nc1C(c1ccc(Cl)cc1)=N[C@H]2CC(=O)N1CCS(=O)(=O)CC1` [Example 15, 2-[(4S)-6-(4-Chlorophenyl)-1,8-dimethyl-4,8-dihydropyrazolo[3,4f][1,2,4]triazolo[4,3-a][1,4]diazepin-4-yl]-1-(1,1-dioxidothiomorpholin-4-yl)ethanone], the IC50 in the assay on MOLM-13 cells is 2980 nM; on BRD4 (BD1) (setting [1]), 450 nM.
For the compound `Cc1c2c(cn1C)-n1c(C)nnc1[C@H](CC(=O)N1CCN3C(=O)CCC3C1)N=C2c1ccc(Cl)cc1` (single isomer, unassigned; (-)) [Example 23], the values for the IC50 with LAPC-4 cells, in the assay with MOLM-13 cells and on BRD4 (BD1) (setting [1]) were 470 nM, 880 nM and 50 nM, respectively.
Taken in the same sequence, the figures for `Cc1c2c(cn1C)-n1c(C)nnc1[C@H](CC(=O)N1CCOCC1)N=C2c1ccc(Cl)cc1` [Example 21] were 240 nM, 520 nM and 40 nM.
In the same order, the values of `Cc1noc(CC2N=C(c3ccc(Cl)cc3)c3c(cn(C)c3C)-n3c(C)nnc32)n1` (stereo not drawn) [Example 25, 6-(4-Chlorophenyl)-1,7,8-trimethyl-4-[(3-methyl-1,2,4-oxadiazol-5-yl)methyl]-4,8-dihydropyrrolo[3,4-f][1,2,4]triazolo[4,3-a][1,4]diazepine] are 80 nM, 130 nM and 90 nM.
`Cc1c2c(cn1C)-n1c(C)nnc1C(Cc1nc(C3CC3)no1)N=C2c1ccc(Cl)cc1` (stereo not drawn) [Example 24, 6-(4-Chlorophenyl)-4-[(3-cyclopropyl-1,2,4-oxadiazol-5-yl)methyl]-1,7,8-trimethyl-4,8-dihydropyrrolo[3,4-f][1,2,4]triazolo[4,3-a][1,4]diazepine]: the IC50 came out at 80 nM in the assay on MOLM-13 cells and 50 nM at BRD4 (BD1) (setting [1]).
Regarding `CC(=O)N1CC(NC(=O)C[C@@H]2N=C(c3ccc(Cl)cc3)c3c(cn(C)c3C)-n3c(C)nnc32)C1` [Example 9, N-(1-Acetylazetidin-3-yl)-2-(4S)-[6-(4-chlorophenyl)-1,7,8-trimethyl-4,8-dihydropyrrolo[3,4-f][1,2,4]triazolo[4,3-a][1,4]diazepin-4-yl]acetamide], the IC50 in the assay with LAPC-4 cells is 550 nM; in the assay with MOLM-13 cells, 610 nM; on BRD4 (BD1) (setting [1]), 110 nM.
Take `CCNC(=O)C[C@@H]1N=C(c2ccc(Cl)cc2)c2c(cn(C)c2C)-n2c(C)nnc21` [Example 10, (−)-2-[(4S)-6-(4-Chlorophenyl)-1,7,8-trimethyl-4,8-dihydropyrrolo[3,4f][1,2,4]triazolo[4,3-a][1,4]diazepin-4-yl]-N-ethylacetamide]: the IC50 with MOLM-13 cells is 450 nM; at BRD4 (BD1) (setting [1]), 170 nM.
